Laboratory results: patent US20060211744A1, “3-Pyridinecarboxamide reduces nerve degeneration” (Children's Medical Center, priority 2005, published 2006)

Experiments:
Assay type in all cases: cell-based
[1] = test system: cultured DRG neurons (transected axons); test: Axon degeneration after transection of axons of cultured DRG neurons (Wallerian degeneration)
Method: As a first step in examining the role of NAD in Wallerian degeneration, we used an ultra-sensitive high-performance liquid chromatography (HPLC) method (Micheli and Sestini, 1997) to measure the concentration of NAD and its derivatives in degenerating axons. To do this, the acidic lysates were prepared from axonal segments collected at different time points after transecting the axons from cultured dorsal root ganglia (DRG) and resolved by reverse-phase chromatography. 2 hr after axotomy, when the transected axons were still morphologically indistinguishable from their uncut controls, NAD levels began to decrease. This NAD decrease continued over the course of degeneration, reaching about 50% at 4 hr post-axotomy, to almost undetectable levels by 6 hr after axotomy, when early morphological signs of degeneration began to develop. […] By a similar approach of alkaline extraction (Micheli and Sestini, 1997), it has been difficult for us to detect NADH in the axonal extracts, presumably due to the low abundance of NADH and the high NAD/NADH ratio reported in mammalian cells (Zhang et al., 2002, Kasischke et al., 2004, Kannurpatti et al., 2004).
To definitively determine whether preventing the local decrease in NAD levels could mediate axon protection, we employed soma-free axonal segments that have been separated from their soma as models to examine the protective effects of different pharmacological treatments. It has been shown that exogenously provided NAD, when directly added to the culture medium of DRG neurons, can be transported across the axonal membrane (Araki et al., 2004). Thus, we first examined the protective effects of different concentrations of NAD added to the culture before or after axon transection and removal of ganglia.
To further assess the local and nuclear contribution to such an NAD-dependent protection, we compared the protective effects of NAD provided at different time points. […] In this respect, our results are inconsistent with those shown by Araki et al (2004), possibly due to the different concentrations of NAD used in our studies (1-20 mM) and by Araki et al (0.1 to 1 mM).
We next attempted to explore the possible mechanisms underlying this local NAD-dependent axon protection. […] A possible explanation for this discrepancy between Araki et al (2004) and our results is the different approaches used to block Sirt1 activity. […] It is known that […], other sirturins exist and some of these proteins are localized in the cytoplasmic compartment (Onyango et al., 2002; North et al., 2003).

[2] = test system: superior sympathetic ganglia (SCGs) and other neuronal types expressing mutant Nmnat1; test: Axon degeneration induced by over-expression of mutant Nmnat1 in cultured neurons; conditions: no axotomy
Text: We next examined whether decreasing neuronal NAD levels is sufficient to induce axon degeneration in intact neurons. By sequence alignment, a conserved (T/H)XGH motif has been identified in the N-terminus of all Nmnat proteins from different species (Saridakis et al., 2001). This motif likely represents a critical active site, as a mutant enzyme with a point mutation at the last amino acid (H to A) loses its catalytic activity but retains its ability to bind the nicotinamide mononucleotide (NMN) substrate (Saridakis et al., 2001). Thus, we made a mutant Nmnat1 in which the critical histidine residue at amino acid 24 in this active site motif was substituted with alanine. Since most of the NAD in mammalian cells, except for liver and kidney cells, is synthesized by recycling degraded NAD products such as nicotinamide via the salvage pathway (Shibata et al., 1991, Rongvaux et al., 2003), over-expressing this mutant Nmnat1 would be expected to sequester the limited substrates, thus decreasing cellular NAD levels. […] As a result, neurons expressing this mutant Nmnat1 developed signs of axon degeneration in the absence of axotomy, concomitant with decreases in neuronal NAD and ATP levels.
In addition, a caspase inhibitor Z-DEVD-fink also had no effect on the axon degeneration induced by this mutant Nmnat1 expression.

[3] = test system: cultured hippocampal neurons; test: Synaptic loss and process degeneration in cultured hippocampal neurons (dominant-negative Nmnat1)
Text: We next attempted to examine whether decreasing NAD levels can induce similar “dying-back” axon degeneration in neurons with established synaptic connections. Such experiments might allow us to assess whether the degenerative processes in axons and other neuronal structures, including synaptic structures and dendritic processes, share similar mechanisms. To do this, we introduced both wild type and dominant negative Nmnat1 into cultured hippocampal neurons at 20 days in vitro (DIV 20), when their synaptic connections have formed and matured (Brewer et al. 1993), and examined their effects on axons as well as dendrites and synapses. As a conventional approach to visualize these neuronal structures, we also co-infected the hippocampal neurons with HSV expressing YFP. […] Moreover, neuronal NAD levels declined from 24-48 hr post-infection with viruses expressing dominant-negative Nmnat1 but not wild type Nmnat1 or YFP. Thus, we decided to focus our analysis on the first 60 hours post-infection.
To monitor changes in synaptic structures, we co-infected DIV20 neurons with HSV expressing YFP and wild type or the mutant Nmnat1, and quantified both spine density and the length and branching of axons and dendrites. As the density of dendritic spines has been considered a reliable indicator for synapse number (reviewed by Hering and Sheng, 2001), we performed high-resolution YFP imaging in neurons co-expressing YFP and Nmnat1 proteins at the indicated time points post-infection to measure the spine densities in these co-infected neurons. Dendrite length and branching patterns were analyzed using Sholl's method of regularly spaced concentric circles centered on the neuronal soma (Sholl, 1953). […]
In the experiments described above, we also performed immunostaining with antibodies against the presynaptic marker bassoon, and found a decrease of positively-stained synaptic structures. However, due to the complex morphology of the axons that makes it extremely difficult to quantify the axonal length in DIV20 hippocampal neurons, we […]. […]

`NC(=O)c1ccc[n+]([C@@H]2O[C@H](COP(=O)([O-])OP(=O)(O)OC[C@H]3O[C@@H](n4cnc5c(N)ncnc54)[C@H](O)[C@@H]3O)[C@@H](O)[C@H]2O)c1` [NAD, nicotinamide adenine dinucleotide] was tested. Which “concentrations resulting in significant protective effects on axon degeneration” value ([1]; added to culture medium of DRG neurons) did it give?
Its value is 1 to 20 mM.

Which “axon degeneration induced by mutant Nmnat1 expression” value [2] does the source give for `COC(=O)CC[C@H](NC(=O)[C@H](CC(=O)OC)NC(=O)OCc1ccccc1)C(=O)N[C@H](C(=O)N[C@@H](CC(=O)OC)C(=O)CF)C(C)C` [Z-DEVD-fink] here?
The value was “no effect”.

With `Oc1ccc(C=Cc2cc(O)cc(O)c2)cc1` [resveratrol] as the molecule, how does the “changes (spine density, dendrites) induced by dominant-negative Nmnat1” value ([3]; DIV20 hippocampal neurons) read?
Its value is “did not affect the changes”.

And the “extent of axon degeneration” value ([1]; a range of concentrations)?
Its value is “failed to observe any significant change”.

With `CC(NC(=O)c1ccccc1/N=C/c1c(O)ccc2ccccc12)c1ccccc1` (stereo not drawn) [sirtinol] as the molecule, how does the “dendritic spine quantity or structure, compound alone” value ([3]; from 50 to 100 μM, up to 72 hr) read?
The value was “did not induce significant changes”.

And the “attenuation of the protective effect of Nmnat1 or NAD” value ([1]; sirturin inhibitors, nicotinamide at 50 μM)?
The value was “did not attenuate the protective effect”.
